Where two headings read alike, the source gives them in different places.
Experiments:
[1] = biological target: T1, HDAC3 (Homo sapiens, UniProt O15379); test: biochemical; type: biochemical
T1 construct: purchased BPS Bioscience
Method: (§1) All of the HDAC enzymes tested were purchased from BPS Bioscience. First, 20 μL of each recombinant HDAC enzyme solution (HDAC1, 2, 3, 4, 6, 7, 8, and 9) was mixed with various concentrations of tested compound samples (20 μL) in a 96-well plate. The mixture was incubated at 30°C for 1 h for the dose-dependent assay. Additionally, mixtures were incubated for 15, 30, 60, and 90 min, for the time-dependent assay, and then 10 μL of fluorogenic substrate [3 mM Boc-Lys(acetyl)-AMC or Boc-Lys (trifluoroacetyl)-AMC for HDAC1/2/3/6 or HDAC4/7/8/9, respectively] was added. Then, the acetylation reaction was initiated by adding HDAC substrate working solution and incubating at 30°C for 2 h. After the desired time, 10 μL developer with trypsin and trichostatin A was added to stop the reaction, and then the mixture was incubated at 30°C for another 30 min.
(§2) A microplate reader was used to determine fluorescence intensity at excitation: 360 nm and emission: 460 nm. The inhibition ratios were calculated by comparing the fluorescence intensities from tested wells to those of controls. The IC50 curves and values were then obtained with GraphPad Prism 6.0 software.

[2] = tested on: HepG2 xenograft; test: In vivo antitumor activity, HepG2 xenograft nude mice model; conditions: 100 mg/kg once a day for 15 days
Method: When the tumor is prominent, the BALB/c female mice were randomly assigned into control and treatment groups (six mice per group).
Injected mice were kept for 10 days; those with palpable tumors were then randomly assigned into treatment and control groups (six mice per group). The treatment groups were administrated with 100 mg/kg/d test compound intragastrically, whereas the control group was administered with an equal volume of phosphate-buffered saline (PBS) solution. The tumor size and body weight were assessed every day. After 15 days of treatment, the mice were euthanized, and tumor weights were acquired with an electronic balance.

[3] = tested on: HepG2 cells; test: Cell cycle analysis (PI, flow cytometry); conditions: 6 h; for Percentage of cells in G2/M phase (third peak): HepG2
Method: (§5) Following 6-h incubation, cells were washed twice with cold PBS and then fixed in 70% precooled ethanol at 4°C for 12 h. The fixed cells were washed again and then stained with PI/RNase A for 30 min at room temperature.

[4] = biological target: T2, HDAC1 (Homo sapiens, UniProt Q13547); test: HDAC enzyme inhibition assay (fluorogenic substrate); type: biochemical; conditions: recombinant enzyme, n ≥ 2, SD <10% of mean
T2 construct: purchased BPS Bioscience
T2 sequence (Q13547 whole entry): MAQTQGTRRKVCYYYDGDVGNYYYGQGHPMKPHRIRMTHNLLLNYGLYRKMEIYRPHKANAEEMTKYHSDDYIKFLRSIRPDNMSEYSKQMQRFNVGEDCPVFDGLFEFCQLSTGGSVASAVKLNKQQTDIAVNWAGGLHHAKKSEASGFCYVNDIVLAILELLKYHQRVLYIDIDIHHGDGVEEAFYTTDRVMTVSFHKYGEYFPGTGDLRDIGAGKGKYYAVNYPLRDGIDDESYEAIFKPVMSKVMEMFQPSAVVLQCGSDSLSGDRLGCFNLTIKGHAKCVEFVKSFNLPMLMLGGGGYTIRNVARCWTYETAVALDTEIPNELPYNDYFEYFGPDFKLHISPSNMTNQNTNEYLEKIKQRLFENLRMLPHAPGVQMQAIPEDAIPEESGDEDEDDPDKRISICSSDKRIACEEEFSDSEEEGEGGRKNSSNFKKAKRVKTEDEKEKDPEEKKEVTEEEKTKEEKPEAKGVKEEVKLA
Method: as §1, §2

[5] = biological target: T3, HDAC7 (Homo sapiens, UniProt Q8WUI4); test: as above; type: biochemical; conditions: recombinant enzyme, n ≥ 2, SD <10% of mean
T3 construct: purchased BPS Bioscience
T3 sequence (Q8WUI4 whole entry): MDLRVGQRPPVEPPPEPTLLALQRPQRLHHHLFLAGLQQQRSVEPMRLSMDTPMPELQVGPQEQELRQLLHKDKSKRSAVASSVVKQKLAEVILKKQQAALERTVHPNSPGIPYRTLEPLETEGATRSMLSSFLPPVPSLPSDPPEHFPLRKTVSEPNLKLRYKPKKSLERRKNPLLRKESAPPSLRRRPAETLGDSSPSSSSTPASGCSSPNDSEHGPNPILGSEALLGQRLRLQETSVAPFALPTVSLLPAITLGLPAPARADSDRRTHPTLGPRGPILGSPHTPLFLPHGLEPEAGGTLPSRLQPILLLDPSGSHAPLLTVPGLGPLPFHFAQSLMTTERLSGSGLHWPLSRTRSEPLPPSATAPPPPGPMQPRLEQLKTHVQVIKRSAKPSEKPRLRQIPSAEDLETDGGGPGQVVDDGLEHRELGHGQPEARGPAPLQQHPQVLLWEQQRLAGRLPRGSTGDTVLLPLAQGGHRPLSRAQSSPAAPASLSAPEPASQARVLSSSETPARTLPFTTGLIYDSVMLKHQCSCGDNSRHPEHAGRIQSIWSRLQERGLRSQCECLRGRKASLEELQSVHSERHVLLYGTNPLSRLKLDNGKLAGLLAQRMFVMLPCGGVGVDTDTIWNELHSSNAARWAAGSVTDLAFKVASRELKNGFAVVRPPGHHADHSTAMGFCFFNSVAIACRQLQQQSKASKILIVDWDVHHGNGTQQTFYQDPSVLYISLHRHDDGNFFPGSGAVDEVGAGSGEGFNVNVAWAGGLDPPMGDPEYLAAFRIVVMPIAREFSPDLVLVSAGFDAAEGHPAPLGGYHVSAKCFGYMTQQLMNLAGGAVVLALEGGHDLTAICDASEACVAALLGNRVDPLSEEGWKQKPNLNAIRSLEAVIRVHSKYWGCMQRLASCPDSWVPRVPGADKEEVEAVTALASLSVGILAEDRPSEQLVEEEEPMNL
Method: as §1, §2

[6] = biological target: T4, HDAC6 (Homo sapiens, UniProt Q9UBN7); test: as above; type: biochemical
T4 construct: purchased BPS Bioscience
T4 sequence (Q9UBN7 whole entry): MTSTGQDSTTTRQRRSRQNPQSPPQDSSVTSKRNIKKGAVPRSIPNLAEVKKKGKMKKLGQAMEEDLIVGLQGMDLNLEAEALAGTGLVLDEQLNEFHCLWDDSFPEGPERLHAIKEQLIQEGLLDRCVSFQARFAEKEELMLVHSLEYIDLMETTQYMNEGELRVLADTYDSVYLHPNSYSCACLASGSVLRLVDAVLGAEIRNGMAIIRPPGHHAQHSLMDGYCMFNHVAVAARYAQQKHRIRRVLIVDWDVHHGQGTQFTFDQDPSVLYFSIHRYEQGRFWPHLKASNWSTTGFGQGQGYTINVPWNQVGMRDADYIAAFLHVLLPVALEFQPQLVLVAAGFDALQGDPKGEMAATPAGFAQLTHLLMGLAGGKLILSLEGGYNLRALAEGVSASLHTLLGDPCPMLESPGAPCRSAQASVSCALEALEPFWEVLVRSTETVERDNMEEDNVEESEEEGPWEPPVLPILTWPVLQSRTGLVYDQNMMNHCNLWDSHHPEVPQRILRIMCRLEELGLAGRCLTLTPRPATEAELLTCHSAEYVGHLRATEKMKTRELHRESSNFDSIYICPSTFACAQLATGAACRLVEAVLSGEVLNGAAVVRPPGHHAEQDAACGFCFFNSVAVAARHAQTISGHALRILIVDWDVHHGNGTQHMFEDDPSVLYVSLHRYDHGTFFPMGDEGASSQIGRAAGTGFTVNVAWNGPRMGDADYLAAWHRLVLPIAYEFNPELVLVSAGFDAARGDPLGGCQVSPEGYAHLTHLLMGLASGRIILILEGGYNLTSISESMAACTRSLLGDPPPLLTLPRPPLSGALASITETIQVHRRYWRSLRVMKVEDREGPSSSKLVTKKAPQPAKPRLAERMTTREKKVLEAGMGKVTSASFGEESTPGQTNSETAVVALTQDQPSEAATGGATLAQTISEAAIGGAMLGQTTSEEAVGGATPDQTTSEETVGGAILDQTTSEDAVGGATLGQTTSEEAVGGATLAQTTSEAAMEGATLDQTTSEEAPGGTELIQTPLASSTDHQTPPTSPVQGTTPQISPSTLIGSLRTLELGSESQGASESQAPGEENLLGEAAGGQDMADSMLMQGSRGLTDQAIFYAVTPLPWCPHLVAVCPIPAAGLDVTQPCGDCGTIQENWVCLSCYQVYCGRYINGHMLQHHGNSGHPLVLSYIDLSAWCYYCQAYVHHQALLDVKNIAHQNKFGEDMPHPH
Method: as §1, §2

[7] = tested on: U937 cells; test: Antiproliferative MTT assay; type: cell-based; conditions: Homo sapiens, U-937, 48 h, read-out: Antiproliferative IC50
Method: (§3) The stock solutions of compounds to be tested were prepared in culture medium. […] To determine cell viability, 20 μL MTT working solution (5 mg/mL) was then added to each well and incubated for another 4 h. After this incubation, the medium was carefully aspirated, and 200 μL dimethyl sulfoxide (DMSO) was added to each well and vibrated for 10 min to make sure formed formazans were completely dissolved. The optical densities (ODs) at 490 and 630 nm were counted by Universal Microplate Spectrophotometer. […] Origin 7.5 software was used to calculate the IC50 values from at least three independent experiments.

[8] = tested on: K562 cells; test: Antiproliferative MTT assay; type: cell-based; conditions: Homo sapiens, K562, 48 h, read-out: Antiproliferative IC50
Method: as §3

[9] = tested on: Hela cells; test: Antiproliferative MTT assay; type: cell-based; conditions: Homo sapiens, 48 h, read-out: Antiproliferative IC50
Method: as §3

[10] = tested on: OS-RC-2 cells; test: Antiproliferative MTT assay; type: cell-based; conditions: Homo sapiens, OS-RC-2, 48 h, read-out: Antiproliferative IC50
Method: as §3

[11] = tested on: FTC-133 cells; test: Antiproliferative MTT assay; type: cell-based; conditions: Homo sapiens, FTC-133, 48 h, read-out: Antiproliferative IC50
Method: as §3

[12] = tested on: U266 cells; test: Antiproliferative MTT assay; type: cell-based; conditions: Homo sapiens, U-266, 48 h, read-out: Antiproliferative IC50
Method: as §3

[13] = tested on: SW579 cells; test: Antiproliferative MTT assay; type: cell-based; conditions: Homo sapiens, SW579, 48 h, read-out: Antiproliferative IC50
Method: as §3

[14] = tested on: SK-NEP-1 cells; test: Antiproliferative MTT assay; type: cell-based; conditions: Homo sapiens, SK-NEP-1, 48 h, read-out: Antiproliferative IC50
Method: as §3

[15] = tested on: H322 cells; test: Antiproliferative MTT assay; type: cell-based; conditions: Homo sapiens, NCI-H322, 48 h, read-out: Antiproliferative IC50
Method: as §3

[16] = tested on: A2780 cells; test: Antiproliferative MTT assay; type: cell-based; conditions: Homo sapiens, A2780, 48 h, read-out: Antiproliferative IC50
Method: as §3

[17] = tested on: MDA-MB-231 cells; test: Antiproliferative MTT assay; type: cell-based; conditions: Homo sapiens, MDA-MB-231, 48 h, read-out: Antiproliferative IC50
Method: as §3

[18] = biological target: T5, HDAC8 (Homo sapiens, UniProt Q9BY41); test: biochemical
T5 construct: purchased BPS Bioscience
T5 sequence (Q9BY41 whole entry): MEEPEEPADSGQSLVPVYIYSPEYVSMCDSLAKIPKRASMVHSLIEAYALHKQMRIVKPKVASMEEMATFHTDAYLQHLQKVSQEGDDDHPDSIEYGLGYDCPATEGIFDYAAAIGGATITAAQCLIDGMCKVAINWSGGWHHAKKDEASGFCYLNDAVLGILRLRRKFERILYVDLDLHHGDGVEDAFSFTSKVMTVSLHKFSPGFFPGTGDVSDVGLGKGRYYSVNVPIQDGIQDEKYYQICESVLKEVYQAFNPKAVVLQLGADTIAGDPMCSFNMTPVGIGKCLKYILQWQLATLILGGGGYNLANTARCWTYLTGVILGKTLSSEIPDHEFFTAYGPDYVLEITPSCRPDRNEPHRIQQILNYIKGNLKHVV
Method: as §1, §2

[19] = biological target: T6, HDAC2 (Homo sapiens, UniProt Q92769); test: biochemical; conditions: recombinant enzyme, n ≥ 2, SD <10% of mean
T6 construct: purchased BPS Bioscience
T6 sequence (Q92769 whole entry): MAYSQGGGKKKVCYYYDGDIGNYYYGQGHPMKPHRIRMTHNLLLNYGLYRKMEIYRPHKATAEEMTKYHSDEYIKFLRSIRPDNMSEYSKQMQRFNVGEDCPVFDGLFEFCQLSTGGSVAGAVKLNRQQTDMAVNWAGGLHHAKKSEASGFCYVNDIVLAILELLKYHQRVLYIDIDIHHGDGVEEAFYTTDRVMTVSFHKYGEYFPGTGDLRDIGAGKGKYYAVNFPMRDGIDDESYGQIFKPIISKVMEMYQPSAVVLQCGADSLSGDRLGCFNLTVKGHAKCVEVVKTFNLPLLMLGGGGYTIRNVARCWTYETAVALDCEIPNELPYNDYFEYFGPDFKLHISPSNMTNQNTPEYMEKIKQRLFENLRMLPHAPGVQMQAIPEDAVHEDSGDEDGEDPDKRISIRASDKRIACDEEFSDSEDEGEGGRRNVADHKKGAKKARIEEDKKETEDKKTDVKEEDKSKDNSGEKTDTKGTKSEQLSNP
Method: as §1, §2

[20] = biological target: T7, HDAC4 (Homo sapiens, UniProt P56524); test: biochemical
T7 construct: purchased BPS Bioscience
Method: as §1, §2

[21] = biological target: T8, HDAC9 (Homo sapiens, UniProt Q9UKV0); test: biochemical
T8 construct: purchased BPS Bioscience
T8 sequence (Q9UKV0 whole entry): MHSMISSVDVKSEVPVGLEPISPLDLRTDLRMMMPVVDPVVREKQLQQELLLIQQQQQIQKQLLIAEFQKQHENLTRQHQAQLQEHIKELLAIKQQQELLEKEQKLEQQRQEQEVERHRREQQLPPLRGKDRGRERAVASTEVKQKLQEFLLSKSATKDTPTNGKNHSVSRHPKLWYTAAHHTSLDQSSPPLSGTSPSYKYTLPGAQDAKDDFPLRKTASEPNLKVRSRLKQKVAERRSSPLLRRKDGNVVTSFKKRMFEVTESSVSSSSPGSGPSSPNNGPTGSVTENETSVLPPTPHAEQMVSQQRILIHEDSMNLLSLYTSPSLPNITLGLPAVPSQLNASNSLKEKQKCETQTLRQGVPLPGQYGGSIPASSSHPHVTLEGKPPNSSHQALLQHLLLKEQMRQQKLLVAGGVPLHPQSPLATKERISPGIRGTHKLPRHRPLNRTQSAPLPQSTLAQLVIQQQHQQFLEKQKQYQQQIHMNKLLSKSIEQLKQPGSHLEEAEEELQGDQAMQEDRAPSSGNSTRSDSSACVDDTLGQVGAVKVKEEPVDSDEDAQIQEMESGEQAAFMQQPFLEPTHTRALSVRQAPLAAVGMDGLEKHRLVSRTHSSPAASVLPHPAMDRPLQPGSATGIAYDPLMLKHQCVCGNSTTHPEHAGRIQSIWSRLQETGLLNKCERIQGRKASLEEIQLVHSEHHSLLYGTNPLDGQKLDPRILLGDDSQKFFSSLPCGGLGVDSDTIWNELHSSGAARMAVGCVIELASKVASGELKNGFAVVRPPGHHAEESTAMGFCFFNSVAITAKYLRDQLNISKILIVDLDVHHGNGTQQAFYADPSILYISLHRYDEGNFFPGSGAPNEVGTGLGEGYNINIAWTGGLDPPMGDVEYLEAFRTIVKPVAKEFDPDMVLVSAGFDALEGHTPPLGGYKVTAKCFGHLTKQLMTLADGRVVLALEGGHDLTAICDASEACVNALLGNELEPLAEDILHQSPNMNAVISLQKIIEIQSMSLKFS
Method: as §1, §2

[22] = tested on: HepG2 cells; test: Cell apoptosis assay (annexin V-FITC/PI, flow cytometry); type: cell-based, human; conditions: 24 h, normal group 5.83%
Method: Then cells were washed with PBS, collected, and resuspended with binding buffer from a commercially available annexin V–FITC kit (Thermo Fisher Co., USA) and mixed with 5 μL of annexin V–FITC gently. Following 10 min of incubation, 1 μL of propidium iodide was added to the samples and incubated for another 20 min while avoiding light. Flow cytometry was used to determine cell apoptosis status (CytoFLEX, Beckman Coulter).

[23] = tested on: HepG2 cells; test: Antiproliferative MTT assay; type: cell-based, human
Method: as §3

[24] = tested on: H460 cells; test: Antiproliferative MTT assay; type: cell-based; conditions: Homo sapiens, NCI-H460, 48 h, read-out: Antiproliferative IC50
Method: (§4) […]. The stock solutions of compounds to be tested were prepared in culture medium. Tumor cell lines were cultured in 96-well plates at a density of 5 × 10^3 cells per well and incubated until 90–95% confluence, and then each well received 100 μL medium containing desired concentrations of test compounds, and then incubated at 37°C and 5% CO2 for 48 h. To determine cell viability, 20 μL MTT working solution (5 mg/mL) was then added to each well and incubated for another 4 h. After this incubation, the medium was carefully aspirated, and 200 μL dimethyl sulfoxide (DMSO) was added to each well and vibrated for 10 min to make sure formed formazans were completely dissolved. The optical densities (ODs) at 490 and 630 nm were counted by Universal Microplate Spectrophotometer. […] Origin 7.5 software was used to calculate the IC50 values from at least three independent experiments.

[25] = tested on: SW480 cells; test: Antiproliferative MTT assay; type: cell-based; conditions: Homo sapiens, SW480, 48 h, read-out: Antiproliferative IC50
Method: as §4

[26] = tested on: A549 cells; test: Antiproliferative MTT assay; type: cell-based; conditions: Homo sapiens, A549, 48 h, read-out: Antiproliferative IC50
Method: as §4

[27] = tested on: HepG2 cells xenograft; set-up: method as in PMID 31543818; conditions: nude mice xenograft model; cited from earlier work
[28] = tested on: HepG2 cells; conditions: 6 h
Method: as §5

[29] = tested on: HepG2 cells; test: Drug combination analysis (MTT assay); type: cell-based; conditions: Homo sapiens, 48 h, read-out: Percentage inhibition rate (PIR)
Method: The efficacy of drug combination of FNA with taxol and camptothecin was evaluated via cell viability assay (MTT assay). The stock solutions of tested compounds were diluted to the desired concentrations with culture medium. The cells were cultured in 96-well plates at a density 5 × 10^3 cells per well and incubated until 90–95% confluence, and then 100 μL of medium containing desired concentrations of test compounds was added to the wells. Following 48-h incubation, 10 μL of MTT working solution was added to each well and incubated for another 4 h. After removal of the medium, 200 μL DMSO was added to each well to dissolve the formed formazan. The plates were vortexed for 10 min to ensure complete dissolution. Then the OD was acquired with a microplate reader at 490 and 630 nm.

T1 sequence (O15379 whole entry): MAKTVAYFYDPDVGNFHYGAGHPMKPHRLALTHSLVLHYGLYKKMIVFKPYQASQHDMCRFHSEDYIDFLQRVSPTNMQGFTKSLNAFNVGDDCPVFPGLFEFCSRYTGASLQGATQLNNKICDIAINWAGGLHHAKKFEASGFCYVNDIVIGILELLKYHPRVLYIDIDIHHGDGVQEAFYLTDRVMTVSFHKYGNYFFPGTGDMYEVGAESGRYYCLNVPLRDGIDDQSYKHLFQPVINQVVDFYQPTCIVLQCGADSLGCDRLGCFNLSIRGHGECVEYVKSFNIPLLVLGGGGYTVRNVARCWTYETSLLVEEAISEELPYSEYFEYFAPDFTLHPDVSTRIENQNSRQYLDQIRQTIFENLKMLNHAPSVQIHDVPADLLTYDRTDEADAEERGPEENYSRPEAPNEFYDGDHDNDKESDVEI
T1 sequence (Q9Y618 395-489 partner limits assumed): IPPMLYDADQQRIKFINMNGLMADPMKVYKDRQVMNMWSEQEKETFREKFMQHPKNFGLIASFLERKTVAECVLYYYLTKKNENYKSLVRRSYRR

Nc1cc(F)ccc1NC(=O)c1ccc(N(CCCl)CCCl)cc1 [FNA, N-(2-amino-4-fluorophenyl)-4-[bis-(2-chloroethyl)-amino]-benzamide]
HDAC3 selectivity vs. HDAC1 ([1]; ratio of IC50 values): 8.83 fold | HDAC3 selectivity vs. HDAC2 ([1]; ratio of IC50 values): 9.94 fold | IC50 ([1]; recombinant enzyme, n ≥ 2, SD <10% of mean): 0.0955 µM | Tumor growth inhibition (TGI) rate [2]: 48.89% | Percentage of cells in G2/M phase (third peak) ([3]; 0.125 μM): 18.84% | Percentage of cells in G2/M phase (third peak) ([3]; 0.5 μM): 59.36% | IC50 [4]: 0.843 µM | IC50 [5]: > 5 µM | IC50 [6]: > 5 µM | IC50 [7]: 0.55 ± 0.03 µM | IC50 [8]: 1.31 ± 0.05 µM | IC50 [9]: 1.41 ± 0.04 µM | IC50 [10]: > 100 µM | IC50 [11]: 9.09 ± 0.13 µM | IC50 [12]: 0.63 ± 0.32 µM | IC50 [13]: 52.4 ± 0.13 µM | IC50 [14]: 8.32 ± 0.18 µM | IC50 [15]: 6.36 ± 0.07 µM | IC50 [16]: 4.3 ± 0.12 µM | IC50 [17]: 35.29 ± 0.03 µM | IC50 [18]: > 5 µM | IC50 [19]: 0.949 µM | IC50 [20]: > 5 µM | IC50 [21]: > 5 µM | Apoptosis rate of HepG2 cells ([22]; 1 μM): 14.08% | Apoptosis rate of HepG2 cells ([22]; 3 μM): 19.11% | Apoptosis rate of HepG2 cells ([22]; 9 μM): 28.83% | Potency relative to SAHA in inhibition of the growth of HepG2 cells ([23]; HepG2, ratio of IC50 values): 13.3 fold | IC50 ([23]; Homo sapiens, HepG2, 48 h, read-out: Antiproliferative IC50): 1.3 ± 0.25 µM | IC50 [24]: 4.73 ± 0.05 µM | IC50 [25]: > 100 µM | IC50 [26]: 33.74 ± 0.04 µM

Nc1ccccc1NC(=O)c1ccc(N(CCCl)CCCl)cc1 [NA, N-(2-aminophenyl)-4-(bis(2-chloroethyl)amino)benzamide]
In vivo potency compared with SAHA [27]: lower potency than SAHA

O=C(CCCCCCC(=O)Nc1ccccc1)NO [SAHA, Vorinostat]
Effect in the regulation of HepG2 cell cycle ([3]; 0.125, 0.25 and 0.5 μM): did not exhibit any effects | Percentage of cells, first peak of cell cycle histogram (phase not given) ([28]; 0.125 μM): 57.65% | Percentage of cells, second peak of cell cycle histogram (phase not given) ([28]; 0.125 μM): 25.02% | Percentage of cells, first peak of cell cycle histogram (phase not given) ([28]; 0.25 μM): 56.26% | Percentage of cells, second peak of cell cycle histogram (phase not given) ([28]; 0.25 μM): 26.33% | Percentage of cells, first peak of cell cycle histogram (phase not given) ([28]; 0.5 μM): 64.73% | Percentage of cells, second peak of cell cycle histogram (phase not given) ([28]; 0.5 μM): 23.27% | Apoptosis rate of HepG2 cells ([22]; 1 μM): 10.03% | Apoptosis rate of HepG2 cells ([22]; 9 μM): 12.43% | IC50 [24]: 7.63 ± 0.03 µM | IC50 [25]: 2.91 ± 0.04 µM

CC[C@@]1(O)C(=O)OCc2c1cc1n(c2=O)Cc2cc3ccccc3nc2-1 [camptothecin]
inhibition at 0.25 µM ([29]; HepG2, camptothecin 0.25 μM alone): 61.7% | inhibition at 0.5 µM ([29]; HepG2, camptothecin 0.5 μM alone): 60.9%

CC(=O)O[C@H]1C(=O)[C@@]2(C)[C@H]([C@H](OC(=O)c3ccccc3)[C@]3(O)C[C@H](OC(=O)[C@H](O)[C@@H](NC(=O)c4ccccc4)c4ccccc4)C(C)=C1C3(C)C)[C@]1(OC(C)=O)CO[C@@H]1C[C@@H]2O [taxol]
inhibition at 0.1 µM ([29]; HepG2, taxol 0.1 μM alone): 57.1% | inhibition at 0.2 µM ([29]; HepG2, taxol 0.2 μM alone): 62.4%

Source: publication PMC7593677, “Discovery of N-(2-Amino-4-Fluorophenyl)-4-[bis-(2-Chloroethyl)-Amino]-Benzamide as a Potent HDAC3 Inhibitor” (Frontiers in Oncology, 2020)
